Data on five compounds can be found in article PMC7733796 (Proceedings of the National Academy of Sciences of the …, 2020).

Non-standard residues stand in square brackets, D forms with d. Residues, ends and D or L forms follow the SMILES beside them.

Data set [1] deals with T1, CXCR4 (Homo sapiens, UniProt P61073). The settings on record: hNSCs preincubated with 10 µM, osmotic pump 24-72 h, analysis 3 d posttransplant.
In data set [2] the test system is Sandhoff disease (Hexβ−/−) mice. As to the kind of experiment: Sandhoff disease. The format is in vivo, mouse.
In a further data set the test system is activated M1 microglia. As to the kind of experiment: Microgliosis and safety after intracerebral injection in adult mice. The format is in vivo, mouse. The settings on record: for CD11b+ cells (activated M1 microglia): adult mouse brain after injection, n = 3 mice per condition.
In data set [3] the target is T1, CXCR4. The data set can be described thus: Ca2+ mobilization. The format is cell-based. The settings on record: Sup-T1 cells; for Ca2+ efflux (signaling) with increasing concentrations: Fura-2/AM ratiometric, plate reader, DV1 tested up to 40 µM. (Calcium assays in cells follow changes in intracellular calcium, usually with a dye or a luminescent sensor.)
The test system of data set [4] is hNSCs. As to the kind of experiment: Boyden chamber transmigration assay, hNSCs. The note with it: hNSCs 1x10^5, 8-µm fibronectin-coated transwell, 5 h. The format is cell-based, human.
Data set [5] addresses T1, CXCR4. As to the kind of experiment: Single-cell [Ca2+]i. The format is cell-based. The settings on record: SDV1a 10 µM; at least 11 cells per condition.
In another data set the test system is ERK1/2, p38-MAPK, IκBα. As to the kind of experiment: Western blot of phosphorylation downstream of CXCR4 in hNSCs. The format is cell-based, human. The note with it: hNSC lysates. For orientation: A western blot detects proteins with antibodies after separation by electrophoresis.
For data set [6], the target named is T1, CXCR4. As to the kind of experiment: Receptor endocytosis analysis. The format is cell-based. The settings on record: hNSCs, ligand 4 µg/mL, 37°C.
The nature of data set [7]: Persistence and pharmacokinetics in mouse brain. The format is in vivo.
Data set [8] concerns hNSCs. The data set can be described thus: CyQuant proliferation assay, hNSCs. The format is cell-based, human. The settings on record: SDV1a 10 nM, 72 h.
Data set [9] has as its system hNSCs. The data set can be described thus: Microarray gene expression and gene ontology analysis of hNSCs. The format is cell-based, human. The settings on record: hNSCs vs non-treated control.
The next data set relates to transplanted hNSCs. The format is in vivo, mouse. The settings on record: adult C57BL/6J mice, 2 µl injected into cortex or hippocampus, n=3 per group.
The subject of another data set is Sup-T1 cells. The data set can be described thus: Boyden chamber chemotaxis assay, Sup-T1 cells. The format is cell-based, human. The settings on record: peptide in lower chamber at titrated concentrations, 37°C 2 h.
Where [10] appears, read: 4-mo-old mice, hiPSC-hNSCs + SDV1a, n = 6.

T1 sequence (P61073 whole entry): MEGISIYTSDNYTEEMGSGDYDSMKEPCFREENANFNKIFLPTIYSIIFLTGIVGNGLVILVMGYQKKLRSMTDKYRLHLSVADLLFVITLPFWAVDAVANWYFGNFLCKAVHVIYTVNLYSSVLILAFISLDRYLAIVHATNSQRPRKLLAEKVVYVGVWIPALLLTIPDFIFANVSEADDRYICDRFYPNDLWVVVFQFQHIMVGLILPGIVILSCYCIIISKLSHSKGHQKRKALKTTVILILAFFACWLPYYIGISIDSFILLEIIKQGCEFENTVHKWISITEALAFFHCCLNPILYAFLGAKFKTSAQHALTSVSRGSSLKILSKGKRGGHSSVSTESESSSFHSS

As for `c1cc(CN2CCCNCCNCCCNCC2)ccc1CN1CCCNCCNCCCNCC1` [AMD3100], the “Effect of CXCR4 inhibition on hNSC migration to SDV1a” value at CXCR4 [1] was “abrogated”.
With `CC(C)C[C@H](NC(=O)[C@H](CO)NC(=O)[C@@H](NC(=O)[C@@H]1CCCN1C(=O)[C@@H](N)CCCCN)C(C)C)C(=O)N[C@@H](CO)C(=O)N[C@@H](Cc1ccc(O)cc1)C(=O)N[C@@H](CCCNC(=N)N)C(=O)NCC(=O)NCC(=O)N[C@H](CC(C)C)C(=O)NCC(=O)N[C@H](C)C(=O)N[C@H](CO)C(=O)N[C@H](Cc1c[nH]c2ccccc12)C(=O)N[C@H](Cc1c[nH]cn1)C(=O)N[C@H](CCCNC(=N)N)C(=O)N1CCC[C@@H]1C(=O)N[C@H](CC(=O)O)C(=O)N[C@H](CCCCN)C(=O)N[C@H](CS)C(=O)N[C@H](CS)C(=O)N[C@H](CC(C)C)C(=O)NCC(=O)N[C@H](Cc1ccc(O)cc1)C(=O)N[C@H](CCC(N)=O)C(=O)N[C@H](CCCCN)C(=O)N[C@H](CCCNC(=N)N)C(=O)N1CCC[C@@H]1C(=O)N[C@H](CC(C)C)C(=O)N1CCC[C@@H]1C(N)=O` [SDV1a, L-(1∼8)-SDF1α-GG-D-(1∼21)-vMIP-II] (H-KPVSLSYRGG[dL]G[dA][dS][dW][dH][dR][dP][dD][dK][dC][dC][dL]G[dY][dQ][dK][dR][dP][dL][dP]-NH2; N-terminus assumed), in data set [2] (setting [10]), the “GM2 ganglioside storage in cortex” value was “little GM2 accumulation occurred” and the “Microgliosis (Iba1) in cortex where donor cells engrafted” value is “scant”. In [2] (hiPSC-hNSC+SDV1a, regions where donor cells were attracted), the “Hex enzyme levels in CNS parenchyma” value is recorded as “raised beyond the critical 3 to 5% therapeutic threshold”. The “CD11b+ cells (activated M1 microglia)” value in the data set with activated M1 microglia came to 1.1 ± 1.0 per 0.4 mm^2. In addition, the “Systemic or CNS toxicity, behavior” value in the data set on activated M1 microglia (mice after intracerebral injection) is “no evidence of systemic or CNS toxicity or altered behavior”. Also, the “Signaling intensity (Ca2+ release) relative to CXCL12/SDF1α” value at CXCR4 [3] (Fura-2/AM) is reported as “an order-of-magnitude less”. For the same compound, the “Concentration at which hNSC chemotaxis peaks (bell-shaped dose-response)” value with hNSCs [4] is recorded as 5 nM. The “Change of [Ca2+]i in single hNSCs” value on CXCR4 [5] is “increased [Ca^2+]i”. Also, in the data set on ERK1/2, p38-MAPK, IκBα, the “Phosphorylation of p38-MAPK (Thr180/Tyr182) and IκBα (Ser-32/36)” value is recorded as “phosphorylated”. In addition, at CXCR4 [6], the “Time to down-regulation of CXCR4 surface expression” value is 90 min. Moreover, the “Persistence in brain after injection” value in data set [7] (FITC- or biotin-tagged SDV1a, adult mouse brain) amounted to 3 wk. Further, the “Time to dissemination throughout the regions” value in data set [7] (postinjection, C57BL/6J mice, HPLC-MS/MS) is reported as no more than 30 min. For the same compound, in the data set with hNSCs [8], the “Increase in total DNA content compared to untreated controls” value is listed as 10%. In addition, the “Gene ontology profile induced in hNSCs” value in the data set on hNSCs [9] is “primarily induced genes associated with developmental, homeostatic, and stem cell-related functions”.
For the compound “C-X-C motif chemokine ligand-12 [CXCL12]”, the “Persistence of microgliosis postinjection” value in the data set on activated M1 microglia (adult mouse brain) was 2 wk. Also, the “CD11b+ cells (activated M1 microglia)” value in the data set on activated M1 microglia stood at 11.7 ± 2.8 per 0.4 mm^2. Also, in the data set on transplanted hNSCs, the “Attraction of hNSCs transplanted into the contralateral hippocampus” value is on record as “drew no hNSCs”. In addition, on CXCR4 [3], the “Ca2+ efflux (signaling) with increasing concentrations” value is reported as “produced the most intense signaling”. Further, the “Concentration at which hNSC chemotaxis peaks (bell-shaped dose-response)” value in the data set on hNSCs [4] is 0.5 nM. Moreover, at CXCR4 [6], the “Time after which cell surface CXCR4 starts to rebound” value is on record as greater than 45 min and the “Time to down-regulation of CXCR4 surface expression” value is reported as no more than 10 min. Further, in data set [7] (similarly labeled recombinant CXCL12, adult mouse brain), the “Time by which undetectable in brain after administration” value is no more than 2 days. Also, the “Gene ontology profile induced in hNSCs” value in the data set on hNSCs [9] is “up-regulation of inflammatory and immune-related processes”.
Take D-(1~21)-vMIP-II [DV1]: in the data set on Sup-T1 cells, the “Chemotaxis of Sup-T1 cells (upper to lower chamber)” value was “elicited no chemotaxis”. Also, on CXCR4 [3], the “Ca2+ efflux (signaling) with increasing concentrations” value was “evoked no signaling”.
In the case of “L-(1~8)-SDF1a (KPVSLSYR; UniProt P48061 22-29, looked up, fragment) [S1]”, the “Chemotaxis of Sup-T1 cells (upper to lower chamber)” value in the data set on Sup-T1 cells is reported as “elicited no chemotaxis”.
